According to patent publication US11236102B2, “Oxabicycloheptane prodrugs” (Lixte Biotechnology, Inc., priority 2015, dated 2022):
Where “and” joins values, the source holds several entries; their conditions need not be identical. Identical values can stand only once. Marks after values point to notes of the source that are not given here.

Experiment: Pharmacokinetic study of 153 (iv, po) in SD rats: 153 and endothal in plasma, liver, brain
Assay type: in vivo, SD rats
Protocol: The blood, liver and brain tissue samples were collected at predetermined times from rats. […] Compound were diluted shortly before use in 4% sodium bicarbonate for sterile injection (this is the standard pediatric solution of NaHCO3 with a pH of about 8.5).
Compound 153 was freshly prepared by diluting the drugs shortly before use in 4% sodium bicarbonate for sterile injection (this is the standard pediatric solution of NaHCO3 with a pH of about 8.5). The final concentrations of 153 solutions were 0.25 mg/mL. The 153 solutions were administered via iv or po route at dose volume of 5 ml/kg according to the latest body weight. Compound 157 was freshly prepared by diluting the drugs shortly before use in 4% sodium bicarbonate for sterile injection (this is the standard pediatric solution of NaHCO3 with a pH of about 8.5). The final concentrations of […] solutions were 0.3 mg/mL. The 157 solutions were administered via iv or po route at dose volume of 5 ml/kg according to the latest body weight.
Twelve (12) female SD rats per group were dosed by iv with 153 or 157. The rats were fasted overnight prior to dosing, with free access to water. Foods were withheld for 2 hours post-dose. Blood, liver and brain tissue samples in two animals each group were collected at each time point, within 10% of the scheduled time for each time point. Two extra animals were used for analytic method development.
Blood (>0.3 mL) were collected via aorta abdominalis in anaesthetic animals into tubes containing heparin at 15 min, 1, 2, 6, 10 and 24 hours after iv administration. Liver and brain tissues were collected immediately after animal death. The liver and brain tissues were excised and rinsed with cold saline to avoid blood residual. Upon collection, each sample was placed on ice and the blood samples were subsequently centrifuged (4° C., 11000 rpm, 5 min) to separate plasma.
The obtained plasma, liver and brain tissue samples were stored at −70° C. until LC-MS/MS analysis.
Two (2) female SD rats per group were dosed by po with 153 or 157. The rats were fasted overnight prior to dosing, with free access to water. Foods were withheld for 2 hours post-dose. Blood samples (>0.3 mL) were collected via aorta abdominalis in anaesthetic animals into tubes containing heparin at 30 min, 1, 2, 6, 10 and 24 hours after po administration.
To each sample, 20 μL IS-D (for blank samples, 20 μL acetonitrile:water (1:1) was added) and 300 μl acetonitrile was added. The sample mixture was vortexed for approximately 3 min. After centrifugation at 10000 rpm for 5 min at 4° C., 100 μL of the upper layer was transferred to a new tube and added 200 μL 0.4% formic acid in water (pH 6.0). The mixture was vortexed for approximately 3 min before injected onto the LC/MS/MS system for analysis.
On the day of the assay, the frozen liver and brain samples were thawed unassisted at room temperature. An about 200 mg weighed sample of each thawed tissue was placed into a plastic tube with water (0.6 mL) to facilitate homogenization. Tissue processing was conducted using a homogenizer for approximately 1 min, 200 μl homogenate was transferred into a fresh Eppendorf tube. To each tube, 50 μL IS-D was added and mixed. Then 600 ul acetonitrile was added and the sample mixture was vortexed for approximately 3 min. After centrifugation at 10000 rpm for 5 min at 4° C., 400 μL of the upper layer was transferred to a new tube and evaporate the supernatant to dryness at 35° C. Reconstitute the residue with 200 μL of 0.4% formic acid in water (pH6.0), and vortex for 3 min, submit for LC-MS/MS analysis.
Frozen unknown plasma samples were completely thawed at room temperature and vortexed thoroughly. With a pipette, 50 μL of plasma was transferred into a 2.0 mL Eppendorf tube. 50 μL of 0.1N HCl and 800 μL ethyl acetate were added into each sample. The sample mixture was vortexed for approximately 3 min.

[1] = iv 1.25 mg/kg, 0.25 hr, individual rats, 1.25 mg/kg
[2] = iv 1.25 mg/kg, 1 hr, individual rats, 1.25 mg/kg
[3] = iv 1.25 mg/kg, 2 hr, individual rats, 1.25 mg/kg
[4] = plasma, 153 1.25 mg/kg PO, individual rats, 1.25 mg/kg

## CCCOC(=O)C1C2CCC(O2)C1C(=O)N1CCN(C)CC1 (stereo not shown) [Compound 153]
PO 1.25 mg/kg, 0.25 hr, individual rats, 1.25 mg/kg
  153 plasma concentration: 652 ng/mL
PO 1.25 mg/kg, 1 hr, individual rats, 1.25 mg/kg
  153 plasma concentration: 121 ng/mL
female, SD, rat, in vivo, iv, 1.25 mg/kg, MRT (0 t)
  MRT: 40 min
female, SD, rat, in vivo, po, 1.25 mg/kg
  MRT (0 t): 60.6 min
female, SD, rat, in vivo, po, 1.25 mg/kg, MRT (0 t)
  MRT: 59.2 min
female, SD, rat, in vivo, plasma, 153 1.25 mg/kg PO, individual rats, read-out: MRT (0 t)
  MRT: 62.4 min
female, Sprague-Dawley, rat, in vivo, iv, 1.25 mg/kg
  Cmax: 762 ng/g
female, Sprague-Dawley, rat, in vivo, po, 1.25 mg/kg
  concentration at 2 hr: 0.042 µg/mL
female, Sprague-Dawley, rat, in vivo, po, 1.25 mg/kg, PO 1.25 mg/kg, 0.25 hr, individual rats
  concentration at 0.25 hr: 0.872 µg/mL
female, Sprague-Dawley, rat, in vivo, po, 1.25 mg/kg, PO 1.25 mg/kg, 0.25 hr, mean
  concentration at 0.25 hr: 0.762 µg/mL
female, Sprague-Dawley, rat, in vivo, po, 1.25 mg/kg, PO 1.25 mg/kg, 1 hr, individual rats
  concentration at 1 hr: 0.131 µg/mL
female, Sprague-Dawley, rat, in vivo, po, 1.25 mg/kg, PO 1.25 mg/kg, 1 hr, mean
  concentration at 1 hr: 0.126 µg/mL
female, Sprague-Dawley, rat, in vivo, po, 1.25 mg/kg, PO 1.25 mg/kg, 2 hr, individual rats, read-out: 153 plasma concentration
  concentration at 2 hr: 0.0412 µg/mL
female, Sprague-Dawley, rat, in vivo, po, 1.25 mg/kg, PO 1.25 mg/kg, 2 hr, mean, read-out: 153 plasma concentration
  concentration at 2 hr: 0.0416 µg/mL
[1]
  153 brain concentration: 45 ng/g and 40.3 ng/g
  153 liver concentration: 872 ng/g and 652 ng/g
  153 plasma concentration: 563 ng/mL and 550 ng/mL
Iv 1.25 mg/kg, 0.25 hr, mean
  153 brain concentration: 42.7 ng/g
  153 liver concentration: 762 ng/g
  153 plasma concentration: 557 ng/mL
[2]
  153 brain concentration: 13.9 ng/g and 14.3 ng/g
  153 liver concentration: 131 ng/g and 121 ng/g
  153 plasma concentration: 58 ng/mL and 51.4 ng/mL
Iv 1.25 mg/kg, 1 hr, mean
  153 brain concentration: 14.1 ng/g
  153 liver concentration: 126 ng/g
  153 plasma concentration: 54.7 ng/mL
[3]
  153 brain concentration: 4.05 ng/g and 4.75 ng/g
  153 liver concentration: 42 ng/g and 41.2 ng/g
  153 plasma concentration: 14.8 ng/mL and 13 ng/mL
Iv 1.25 mg/kg, 2 hr, mean
  153 brain concentration: 4.4 ng/g
  153 liver concentration: 41.6 ng/g
  153 plasma concentration: 13.9 ng/mL
Iv 1.25 mg/kg, 6 hr, individual rats, 1.25 mg/kg
  153 plasma concentration: 1.04 ng/mL and 1.02 ng/mL
Iv 1.25 mg/kg, 6 hr, mean
  153 plasma concentration: 1.03 ng/mL
Iv 1.25 mg/kg, 10 hr, individual rat, abnormal, not included in the calculation
  153 plasma concentration: 9.42* ng/mL
Iv administration of 153
  T1/2 in brain: 35.8 min
  T1/2 in liver: 37.6 min
plasma, 153 1.25 mg/kg IV, individual rats, 1.25 mg/kg
  Cmax: 0.563 µg/mL
[4]
  AUC: 0.163 µg·h/mL
  AUC0-∞: 0.163 µg·h/mL
rat, in vivo, iv
  AUClast in brain: 39.4 ng·h/g
  AUClast in liver: 500 ng·h/g
rat, in vivo, po, 1.25 mg/kg
  oral availability: orally available
